“And” between values parts separate entries of the source, which are not always exact repeats. Identical values can stand only once. Like-named read-outs stand apart in the source and are kept apart here.
Experiments:
GluN1-L135H/GluN2B = biological target: T1, GluN1-L135H/GluN2B (UniProt P35439+Q01097, L135H); assay: TEVC on Xenopus oocytes, ifenprodil site mutant; format: cell-based, rat GluN1, mouse GluN2B; details: 1 µM trans-OptoNAM-3 (dark)
T1 construct: expressed in transfected cells; host or cells: Xenopus laevis oocytes (nuclear cDNA injection)
T1 sequence (Q01097 27-1482, other chains not shown): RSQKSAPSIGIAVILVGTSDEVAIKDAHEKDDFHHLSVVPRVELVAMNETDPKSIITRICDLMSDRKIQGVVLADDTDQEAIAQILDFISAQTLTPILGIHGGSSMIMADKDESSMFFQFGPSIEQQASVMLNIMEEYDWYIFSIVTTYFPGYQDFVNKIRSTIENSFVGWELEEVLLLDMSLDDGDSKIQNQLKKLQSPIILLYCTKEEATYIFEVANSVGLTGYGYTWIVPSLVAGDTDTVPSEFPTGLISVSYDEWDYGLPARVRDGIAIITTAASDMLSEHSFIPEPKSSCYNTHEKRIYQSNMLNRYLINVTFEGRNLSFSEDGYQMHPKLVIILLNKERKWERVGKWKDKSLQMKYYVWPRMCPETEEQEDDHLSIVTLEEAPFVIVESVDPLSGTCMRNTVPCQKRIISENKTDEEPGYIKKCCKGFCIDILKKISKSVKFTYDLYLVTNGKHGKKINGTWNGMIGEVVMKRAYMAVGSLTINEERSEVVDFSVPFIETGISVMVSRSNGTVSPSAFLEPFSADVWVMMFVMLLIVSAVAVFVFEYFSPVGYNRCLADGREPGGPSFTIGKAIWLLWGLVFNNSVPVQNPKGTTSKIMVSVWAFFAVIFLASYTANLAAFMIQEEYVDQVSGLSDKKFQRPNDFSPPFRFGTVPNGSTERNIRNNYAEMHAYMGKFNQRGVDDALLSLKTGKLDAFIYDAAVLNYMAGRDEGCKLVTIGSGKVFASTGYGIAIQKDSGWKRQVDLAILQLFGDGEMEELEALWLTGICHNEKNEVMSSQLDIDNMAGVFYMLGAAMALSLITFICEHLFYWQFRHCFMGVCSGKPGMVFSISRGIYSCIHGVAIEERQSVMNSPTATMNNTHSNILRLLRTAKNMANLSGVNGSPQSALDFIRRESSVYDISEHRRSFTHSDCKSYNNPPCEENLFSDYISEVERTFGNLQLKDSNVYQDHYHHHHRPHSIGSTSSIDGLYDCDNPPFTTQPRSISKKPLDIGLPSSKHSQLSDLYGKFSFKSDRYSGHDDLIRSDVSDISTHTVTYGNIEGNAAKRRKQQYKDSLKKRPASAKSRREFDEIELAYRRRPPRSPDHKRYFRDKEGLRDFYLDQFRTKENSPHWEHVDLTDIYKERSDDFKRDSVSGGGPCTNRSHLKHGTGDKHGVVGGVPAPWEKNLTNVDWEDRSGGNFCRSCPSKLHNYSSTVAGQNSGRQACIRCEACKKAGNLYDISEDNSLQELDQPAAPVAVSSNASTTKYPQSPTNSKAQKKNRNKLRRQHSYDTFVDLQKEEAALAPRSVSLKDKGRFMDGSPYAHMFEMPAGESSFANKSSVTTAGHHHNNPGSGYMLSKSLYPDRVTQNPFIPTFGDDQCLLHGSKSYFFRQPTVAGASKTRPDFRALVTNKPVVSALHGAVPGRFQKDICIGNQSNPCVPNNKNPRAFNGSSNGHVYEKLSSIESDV
Source text: (§1) We finally investigated the location of the OptoNAM-3 binding-site on the receptor. […] The binding site for GluN2B-selective antagonists at the GluN1/GluN2B NTD dimer interface contains two partially overlapping pockets that accommodate GluN2B-selective NAMs of distinct chemical scaffolds:[19] either scaffolds related to ifenprodil or scaffolds related to another GluN2B-selective NAM called EVT-101.[47]
(§2) We used cDNA coding for rat GluN1–1a (named GluN1 herein) (GenBank: U08261.1), rat GluN2A (GenBank: D13211.1), mouse GluN2B (GenBank: D10651.2), rat GluA1 flop (GenBank: M36418.2), and rat Myc-GluA2(Q)-flip (GenBank: AF164344.1) cloned into pcDNA3-based expression plasmids. GluK2 (GenBank: Z11548.1) corresponds to the fully RNA-edited version.[80] The GluN2B-ΔNTD construct is from ref[45] and GluN2B–N615K is from ref[81]. Single mutants GluN2B-Q110G and GluN1-L135H were from ref[19]. The GluA2 cDNA contains a Myc tag ([…]) fused between the signal peptide and the N-terminus sequences, and the GluA2 subunit is […] for its Q/R/N site (GluA2(Q)) to allow permeation of homomeric GluA2 receptors.[2] cDNAs coding for rat GluN2C (GenBank: M91563.1) and GluN2D subunits (GenBank: L31611.1) were in prK5 plasmids. […]

GluN1/GluN2B-Q110G = biological target: T2, GluN1/GluN2B-Q110G (UniProt P35439+Q01097, Q110G); assay: TEVC on Xenopus oocytes, EVT-101 site mutant; format: cell-based, rat GluN1, mouse GluN2B; details: 1 µM trans-OptoNAM-3 (dark)
T2 construct: expressed in transfected cells; host or cells: Xenopus laevis oocytes (nuclear cDNA injection)
T2 sequence (Q01097 27-1482 Q110G, other chains not shown): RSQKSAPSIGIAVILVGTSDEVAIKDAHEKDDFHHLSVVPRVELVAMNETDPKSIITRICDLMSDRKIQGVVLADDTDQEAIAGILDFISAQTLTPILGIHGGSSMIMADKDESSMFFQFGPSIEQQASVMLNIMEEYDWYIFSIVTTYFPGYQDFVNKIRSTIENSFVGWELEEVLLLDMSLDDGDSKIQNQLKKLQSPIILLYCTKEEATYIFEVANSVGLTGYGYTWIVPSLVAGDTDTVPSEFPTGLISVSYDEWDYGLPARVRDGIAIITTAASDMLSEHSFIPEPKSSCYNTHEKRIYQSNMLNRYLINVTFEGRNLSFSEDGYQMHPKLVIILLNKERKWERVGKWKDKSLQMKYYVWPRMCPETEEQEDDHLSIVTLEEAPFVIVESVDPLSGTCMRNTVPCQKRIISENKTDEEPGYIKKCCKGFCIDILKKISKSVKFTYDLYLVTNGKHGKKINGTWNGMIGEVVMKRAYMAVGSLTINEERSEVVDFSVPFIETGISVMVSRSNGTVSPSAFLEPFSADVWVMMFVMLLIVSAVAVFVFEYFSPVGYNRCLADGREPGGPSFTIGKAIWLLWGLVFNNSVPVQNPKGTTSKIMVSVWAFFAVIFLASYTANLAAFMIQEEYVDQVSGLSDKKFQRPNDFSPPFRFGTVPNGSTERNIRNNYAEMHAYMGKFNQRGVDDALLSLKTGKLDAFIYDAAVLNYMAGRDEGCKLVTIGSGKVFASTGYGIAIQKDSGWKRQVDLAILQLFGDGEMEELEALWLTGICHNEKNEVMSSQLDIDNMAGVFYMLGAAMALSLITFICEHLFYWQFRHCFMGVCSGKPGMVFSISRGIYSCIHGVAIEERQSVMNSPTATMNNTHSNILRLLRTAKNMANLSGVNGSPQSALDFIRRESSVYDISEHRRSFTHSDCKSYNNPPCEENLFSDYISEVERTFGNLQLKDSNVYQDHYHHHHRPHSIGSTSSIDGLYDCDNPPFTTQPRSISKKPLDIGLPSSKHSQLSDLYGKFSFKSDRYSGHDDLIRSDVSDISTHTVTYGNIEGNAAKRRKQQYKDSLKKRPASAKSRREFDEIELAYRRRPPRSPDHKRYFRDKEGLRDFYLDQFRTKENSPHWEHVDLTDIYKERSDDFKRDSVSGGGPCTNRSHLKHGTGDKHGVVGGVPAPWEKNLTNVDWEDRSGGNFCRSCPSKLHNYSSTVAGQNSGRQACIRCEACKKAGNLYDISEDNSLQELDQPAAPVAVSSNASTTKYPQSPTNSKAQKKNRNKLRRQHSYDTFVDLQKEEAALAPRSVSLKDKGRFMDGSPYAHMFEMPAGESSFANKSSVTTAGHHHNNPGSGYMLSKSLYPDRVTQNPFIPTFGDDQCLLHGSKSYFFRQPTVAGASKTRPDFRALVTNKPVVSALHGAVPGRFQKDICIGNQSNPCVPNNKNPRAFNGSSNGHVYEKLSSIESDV
Source text: as §1, §2

GluA2 AMPA receptors = biological target: T3, GluA2 AMPA receptors (Rattus norvegicus, UniProt P19491); assay: TEVC on Xenopus oocytes, GluA2 AMPA receptors; format: cell-based; parameters: Inhibition, individual values: scale not given here; details: for Inhibition, individual values: GluA2, single cells
T3 construct: expressed in transfected cells; host or cells: Xenopus laevis oocytes (mRNA injection)
T3 sequence (P19491 22-883 isoform P19491-2 limits assumed): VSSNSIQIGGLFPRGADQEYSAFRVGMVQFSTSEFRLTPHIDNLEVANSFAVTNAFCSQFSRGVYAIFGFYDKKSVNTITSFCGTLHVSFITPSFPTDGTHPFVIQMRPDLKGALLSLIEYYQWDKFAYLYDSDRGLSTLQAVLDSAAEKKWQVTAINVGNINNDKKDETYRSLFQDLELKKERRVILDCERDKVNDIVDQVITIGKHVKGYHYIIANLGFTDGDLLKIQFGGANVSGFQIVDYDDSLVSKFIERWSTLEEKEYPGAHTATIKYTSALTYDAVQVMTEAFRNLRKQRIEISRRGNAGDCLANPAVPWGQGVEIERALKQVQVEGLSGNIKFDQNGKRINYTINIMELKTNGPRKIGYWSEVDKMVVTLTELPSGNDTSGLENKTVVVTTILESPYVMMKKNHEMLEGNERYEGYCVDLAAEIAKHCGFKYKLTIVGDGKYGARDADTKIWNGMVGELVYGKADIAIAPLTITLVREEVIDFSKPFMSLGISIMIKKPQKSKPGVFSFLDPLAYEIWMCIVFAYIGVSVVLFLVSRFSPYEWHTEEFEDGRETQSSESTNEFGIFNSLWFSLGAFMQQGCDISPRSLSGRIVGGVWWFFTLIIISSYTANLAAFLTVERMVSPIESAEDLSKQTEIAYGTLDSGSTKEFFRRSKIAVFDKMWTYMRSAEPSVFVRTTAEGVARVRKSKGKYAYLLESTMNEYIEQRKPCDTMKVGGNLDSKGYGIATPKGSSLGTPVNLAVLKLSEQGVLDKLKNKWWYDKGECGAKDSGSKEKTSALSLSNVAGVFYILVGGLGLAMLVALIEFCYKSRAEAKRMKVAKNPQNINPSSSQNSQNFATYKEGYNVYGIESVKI
Source text: We used cDNA coding for rat GluN1–1a (named GluN1 herein) (GenBank: U08261.1), rat GluN2A (GenBank: D13211.1), mouse GluN2B (GenBank: D10651.2), rat GluA1 flop (GenBank: M36418.2), and rat Myc-GluA2(Q)-flip (GenBank: AF164344.1) cloned into pcDNA3-based expression plasmids. GluK2 (GenBank: Z11548.1) corresponds to the fully RNA-edited version.[80] The GluN2B-ΔNTD construct is from ref[45] and GluN2B–N615K is from ref[81]. Single mutants GluN2B-Q110G and GluN1-L135H were from ref[19]. The GluA2 cDNA contains a Myc tag ([…]) fused between the signal peptide and the N-terminus sequences, and the GluA2 subunit is […] for its Q/R/N site (GluA2(Q)) to allow permeation of homomeric GluA2 receptors.[2] cDNAs coding for rat GluN2C (GenBank: M91563.1) and GluN2D subunits (GenBank: L31611.1) were in prK5 plasmids.
The expression of recombinant GluA1, GluA2(Q), and GluK2 receptors was obtained by oocyte injection of 50 nL of mRNAs (at 1 μg/μL). mRNAs were generated using the T7 (GluA1 and GluA2) and T3 (GluK2) mMessage mMachine transcription kits (Invitrogen) after cDNA linearization with the SacII restriction enzyme. The injected oocytes were stored in the same conditions as for NMDARs and used 72–96 h postinjection.
TEVC recordings were performed 1–3 days following injection. TEVC recordings were performed using an Oocyte Clamp amplifier OC-725 (Warner Instruments) and computer-controlled via a 1440A Digidata (Molecular Devices). Currents were sampled at 100 Hz and low-pass-filtered at 20 Hz using an 8-pole Bessel filter (900 Series, Frequency Devices Inc.). Data were collected with Clampfit 10.3. During the recording, the cells were continuously perfused with external recording Ringer solution at pH 7.3 (in mM: 100 NaCl, 0.3 BaCl2, 5 HEPES, and 2.5 KCl, pH adjustment to 7.3 by the addition of NaOH). The NMDA currents were induced by simultaneous application of L-glutamate and glycine (agonist solution) at saturating concentration (100 μM each), and DTPA (10 μM) to prevent receptor inhibition by ambient zinc (∼20 nM).[83] A control solution (100 μM glycine and 10 μM DTPA in Ringer pH 7.3) was used for washout of drug and test solutions. AMPA and kainate receptor currents were induced in the same conditions as NMDA currents (100 μM glutamate and glycine + 10 μM DTPA). Oocytes expressing GluK2 kainate receptors were treated with concanavalin A ([…], equivalent to 1.1 mg/mL) during 10 min before recording to decrease receptor desensitization. Unless notified, recordings were performed at a holding potential of −60 mV. All experiments were performed at room temperature. […]

inhibition of GluN1-L135H/GluN2B (GluN1-L135H/GluN2B): 13.546%
inhibition of GluN1/GluN2B-Q110G (GluN1/GluN2B-Q110G): 65.503%
inhibition at 10 µM (GluA2 AMPA receptors; 10 µM OptoNAM-3 365 nm PSS, construct GluA2, read-out: Inhibition (%)): -4.9%
inhibition at 10 µM (GluA2 AMPA receptors; 10 µM OptoNAM-3 dark PSS (trans), construct GluA2, read-out: Inhibition (%)): -7.4%
inhibition of GluA2 currents (GluA2 AMPA receptors; 10 µM, dark PSS): no effect
inhibition at 10 µM (GluA2 AMPA receptors; 10 µM, dark PSS, read-out: inhibition of GluA2 currents): -7.4 ± 3.5%
Compound: c1ccc(/N=N/c2ccc(CCNc3ccncc3)cc2)cc1 [OptoNAM-3, (E)-N-(4-(Phenyldiazenyl)phenethyl)pyridin-4-amine]
Inhibition, individual values (GluA2 AMPA receptors; 10 µM OptoNAM-3 dark PSS (trans) as headed, second block): -0.00171 and -0.04016 and -0.1082 and -0.02166 and -0.07608 and -0.04674
Inhibition, individual values (GluA2 AMPA receptors; 10 µM OptoNAM-3 dark PSS (trans), first block): -0.007761 and -0.14 and -0.08034 and -0.01769 and -0.2089 and 0.009857

From PMC11413854, “Reversible Control of Native GluN2B-Containing NMDA Receptors with Visible Light” (ACS Chemical Neuroscience, 2024)
